Measured values as given in ChEMBL document CHEMBL3769333, “A mode of action study of cationic anthraquinone analogs: a new class of highly potent anticancer agents” (Medchemcomm, 2015).
Values belong to the compound of their own block, whether it stands above or below them. The source made the active and inactive calls. The rule behind the calls is not given here.

How the values were obtained:
[1] = test system: A549; test: Growth inhibition of human A549 cells assessed as reduction in cell viability after 48 hrs by MTT assay; format: functional, cell-based; details: A549, 48 h
[2] = Growth inhibition of human […] cells assessed as reduction in cell viability after 48 hrs by MTT assay; format: cell-based
[3] = test system: A549; test: Selectivity index, ratio of IC50 for human […] cells to IC50 for human A549 cells; format: functional
[4] = test system: A549; test: Induction of apoptosis in human A549 cells assessed as increase in ROS level at 10 uM after 4 hrs by DCFH-DA staining based flow cytometry relative to control; format: functional
[5] = test system: A549; test: Cell cycle arrest in human A549 cells assessed as accumulation at sub G1 phase at 0.01 to 100 uM after 24 hrs by propidium idoide staining based flow cytometry; format: functional
[6] = test system: A549; test: Cell cycle arrest in human A549 cells assessed as accumulation at G1 phase at 0.01 to 100 uM after 24 hrs by propidium idoide staining based flow cytometry; format: functional
[7] = test system: A549; test: Cell cycle arrest in human A549 cells assessed as accumulation at S phase at 0.01 to 100 uM after 24 hrs by propidium idoide staining based flow cytometry; format: functional
[8] = test system: A549; test: Cell cycle arrest in human A549 cells assessed as accumulation at G2 phase at 0.01 to 100 uM after 24 hrs by propidium idoide staining based flow cytometry; format: functional
[9] = test system: A549; test: Induction of apoptosis in human A549 cells assessed as apoptotic cells at 0.01 uM after 24 hrs by Annexin V/propidium iodide staining based flow cytometry (reference value: 7.7%); format: functional
[10] = test system: A549; test: Induction of apoptosis in human A549 cells assessed as apoptotic cells at 0.1 uM after 24 hrs by Annexin V/propidium iodide staining based flow cytometry (reference value: 7.7%); format: functional
[11] = test system: A549; test: Induction of apoptosis in human A549 cells assessed as apoptotic cells at 1 uM after 24 hrs by Annexin V/propidium iodide staining based flow cytometry (reference value: 7.7%); format: functional
[12] = test system: A549; test: Induction of apoptosis in human A549 cells assessed as apoptotic cells at 10 uM after 24 hrs by Annexin V/propidium iodide staining based flow cytometry (reference value: 7.7%); format: functional
[13] = test system: A549; test: Induction of apoptosis in human A549 cells assessed as apoptotic cells at 100 uM after 24 hrs by Annexin V/propidium iodide staining based flow cytometry (reference value: 7.7%); format: functional
[14] = test system: A549; test: Induction of apoptosis in human A549 cells assessed as cell shrinkage at 1 to 100 uM after 24 hrs by microscopy; format: functional, cell-based
[15] = test system: A549; test: Induction of apoptosis in human A549 cells assessed as nuclear condensation at 100 uM after 24 hrs by microscopy; format: functional, cell-based
[16] = test system: A549; test: Induction of apoptosis in human A549 cells assessed as mitochondrial membrane damage at 100 uM after 24 hrs by microscopy; format: functional, cell-based
[17] = test system: A549; test: Induction of apoptosis in human A549 cells assessed as increase in ROS level at 100 uM after 4 hrs by DCFH-DA staining based flow cytometry relative to control; format: functional
[18] = test system: A549; test: Induction of apoptosis in human A549 cells assessed as increase in ROS level at 10 to 100 nM after 4 hrs by DCFH-DA staining based flow cytometry; format: functional, cell-based
[19] = test system: A549; test: Reduction of glutathione level in human A549 cells at 0.1 uM after 48 hrs by fluorometric assay; format: functional; parameters: scale not given: the % may be the effect or the level left
[20] = test system: A549; test: Reduction of glutathione level in human A549 cells at 1 uM after 48 hrs by fluorometric assay; format: functional; parameters: scale not given: the % may be the effect or the level left
[21] = test system: A549; test: Reduction of glutathione level in human A549 cells at 10 uM after 48 hrs by fluorometric assay; format: functional; parameters: scale not given: the % may be the effect or the level left
[22] = test system: A549; test: Reduction of glutathione level in human A549 cells at 100 uM after 48 hrs by fluorometric assay; format: functional; parameters: scale not given: the % may be the effect or the level left
[23] = test system: A549; test: Reduction of glutathione in human A549 cells assessed as glutathione level after 48 hrs by fluorometric assay; format: functional, cell-based
[24] = test system: A549; test: Induction of alteration in mitochondrial membrane potential in human A549 cells after 24 hrs by rhodamine 123 staining based flow cytometry; format: functional, cell-based
[25] = test system: A549; test: Induction of mitochondrial membrane potential loss in human A549 cells at 10 to 100 nM after 24 hrs by rhodamine 123 staining based flow cytometry (reference value: 1.7%); format: functional
[26] = test system: A549; test: Induction of mitochondrial membrane potential loss in human A549 cells at 1 uM after 24 hrs by rhodamine 123 staining based flow cytometry (reference value: 1.7%); format: functional
[27] = test system: A549; test: Induction of mitochondrial membrane potential loss in human A549 cells at 10 uM after 24 hrs by rhodamine 123 staining based flow cytometry (reference value: 1.7%); format: functional
[28] = test system: A549; test: Induction of mitochondrial membrane potential loss in human A549 cells at 100 uM after 24 hrs by rhodamine 123 staining based flow cytometry (reference value: 1.7%); format: functional
[29] = Induction of ROS level in anhydrous acetonitrile electrolyte assessed as first half wave redox potential at 2 mM using Ag/AgCl reference electrode by cyclic voltammetry; format: physicochemical; details: 2000 µM
[30] = Induction of ROS level in anhydrous acetonitrile electrolyte assessed as second half wave redox potential at 2 mM using Ag/AgCl reference electrode by cyclic voltammetry; format: physicochemical; details: 2000 µM
[31] = Cytotoxicity against human NCI60 cells assessed as cell growth relative to control; format: functional; parameters: concentration or dose not given beside the values
[32] = test system: Escherichia coli; test: Induction of Escherichia coli supercoiled pUC19 DNA cleavage at 240 uM after 24 hrs by agarose gel electrophoresis
[33] = Induction of ROS level assessed as half reduction potential using saturated calomel electrode by cyclic voltammetry; format: physicochemical
[34] = Induction of ROS level assessed as half reduction potential using Ag/AgCl reference electrode by cyclic voltammetry; format: physicochemical
[35] = test system: Escherichia coli; test: Induction of Escherichia coli supercoiled pUC19 DNA cleavage assessed as appearance of nicked supercoiled DNA after 24 hrs by agarose gel electrophoresis in absence of transition metal complex, light irradiation or oxidative reagent

- IC50 [1]: 4.2 µM
- Activity [29]: -182.5 mV
- Activity [30]: -885 mV
- Activity [32]: Active
SMILES: COc1ccc(-n2n[n+](C)c3c2C(=O)c2ccccc2C3=O)cc1.O=S(=O)([O-])C(F)(F)F
- IC50 [2]: 35 µM
- Ratio IC50 [3]: 8
- Activity [4]: 133%
- Activity [5]: inactive
- Activity [6]: inactive
- Activity [7]: inactive
- Activity [8]: inactive
- Activity [9]: 8.74%
- Activity [10]: 11.06%
- Activity [11]: 11.07%
- Activity [12]: 35.44%
- Activity [13]: 61.28%
- Activity [14]: Active
- Activity [15]: Active
- Activity [16]: Active
- Activity [17]: 226%
- Activity [18]: inactive
- Activity [19]: 99.35%
- Activity [20]: 88.76%
- Activity [21]: 23.87%
- Activity [22]: 12.13%
- Activity [23]: Dose-dependent effect
- Activity [24]: Dose-dependent effect
- Activity [25]: 2.55%
- Activity [26]: 4.1%
- Activity [27]: 51.4%
- Activity [28]: 88.05%
- Activity [31]: -24.7%

- Activity [29]: -176 mV
- Activity [30]: -881.5 mV
- Activity [32]: Active
SMILES: Cc1ccc(-n2n[n+](C)c3c2C(=O)c2ccccc2C3=O)cc1.O=S(=O)([O-])C(F)(F)F
- Activity [31]: 11.53%

- Activity [29]: -182.5 mV
- Activity [30]: -762 mV
- Activity [32]: Active
SMILES: COc1cc(OC)cc(-n2n[n+](C)c3c2C(=O)c2ccccc2C3=O)c1.O=S(=O)([O-])C(F)(F)F
- Activity [31]: -27.06%

- Activity [29]: -148.5 mV
- Activity [30]: -842.5 mV
- Activity [32]: Active
SMILES: C[n+]1nn(-c2ccc(Cl)cc2)c2c1C(=O)c1ccccc1C2=O.O=S(=O)([O-])C(F)(F)F
- Activity [31]: 101.7%

- IC50 [1]: 83.3 µM
SMILES: CCCCCCCCn1n[n+](C)c2c1C(=O)c1ccccc1C2=O.O=S(=O)([O-])C(F)(F)F
- Activity [4]: 108%
- Activity [17]: 177%
- Activity [27]: 25%
- Activity [28]: 50%

- Activity [29]: -130.5 mV
- Activity [30]: -823.5 mV
- Activity [32]: Active
SMILES: C[n+]1nn(-c2ccc(C(F)(F)F)cc2)c2c1C(=O)c1ccccc1C2=O.O=S(=O)([O-])C(F)(F)F
- Activity [31]: 58.69%

- Activity [29]: -168 mV
- Activity [30]: -867 mV
- Activity [32]: Active
SMILES: COc1cc(-n2n[n+](C)c3c2C(=O)c2ccccc2C3=O)cc(OC)c1OC.O=S(=O)([O-])C(F)(F)F
- Activity [31]: 23.23%

- IC50 [1]: 3.9 µM
SMILES: COc1cc([C@@H]2c3cc4c(cc3[C@@H](O[C@@H]3O[C@@H]5CO[C@@H](C)O[C@H]5[C@H](O)[C@H]3O)[C@H]3COC(=O)[C@H]23)OCO4)cc(OC)c1O [ETOPOSIDE]

- Activity [33]: -602 mV
- Activity [34]: -567 mV
SMILES: COC1=C(OC)C(=O)C(C/C=C(\C)CC/C=C(\C)CC/C=C(\C)CC/C=C(\C)CC/C=C(\C)CC/C=C(\C)CC/C=C(\C)CC/C=C(\C)CC/C=C(\C)CCC=C(C)C)=C(C)C1=O [UBIDECARENONE]

- Activity [29]: -163.5 mV
- Activity [30]: -866.5 mV
- Activity [35]: Dose-dependent effect
SMILES: C[n+]1nn(-c2ccccc2)c2c1C(=O)c1ccccc1C2=O.O=S(=O)([O-])C(F)(F)F
- Activity [31]: -10.18%

- Activity [29]: -156.5 mV
- Activity [30]: -886 mV
- Activity [32]: Active
SMILES: C[n+]1nn(-c2ccc(F)cc2)c2c1C(=O)c1ccccc1C2=O.O=S(=O)([O-])C(F)(F)F
- Activity [31]: 43.38%

- Activity [29]: -182 mV
- Activity [30]: -885.5 mV
- Activity [32]: Active
SMILES: COc1ccc(-n2n[n+](C)c3c2C(=O)c2ccccc2C3=O)cc1OC.O=S(=O)([O-])C(F)(F)F
- Activity [31]: -31.51%
